Source: US20220112225A1, “ANANDAMIDE COMPOUNDS” (priority 2019, published 2022)

Tests used:
hMfsd2a [1] = biological target: T1, hMfsd2a (Homo sapiens, UniProt Q8NA29); assay: In vitro Mfsd2a transport, UPLC-MS-MS analysis; type: cell-based; conditions: transfected HEK293 cells, 50 μM test compound, 1 hour
T1 construct: expressed in transfected cells; host or cells: HEK293
T1 sequence (Q8NA29 1-530 isoform Q8NA29-2): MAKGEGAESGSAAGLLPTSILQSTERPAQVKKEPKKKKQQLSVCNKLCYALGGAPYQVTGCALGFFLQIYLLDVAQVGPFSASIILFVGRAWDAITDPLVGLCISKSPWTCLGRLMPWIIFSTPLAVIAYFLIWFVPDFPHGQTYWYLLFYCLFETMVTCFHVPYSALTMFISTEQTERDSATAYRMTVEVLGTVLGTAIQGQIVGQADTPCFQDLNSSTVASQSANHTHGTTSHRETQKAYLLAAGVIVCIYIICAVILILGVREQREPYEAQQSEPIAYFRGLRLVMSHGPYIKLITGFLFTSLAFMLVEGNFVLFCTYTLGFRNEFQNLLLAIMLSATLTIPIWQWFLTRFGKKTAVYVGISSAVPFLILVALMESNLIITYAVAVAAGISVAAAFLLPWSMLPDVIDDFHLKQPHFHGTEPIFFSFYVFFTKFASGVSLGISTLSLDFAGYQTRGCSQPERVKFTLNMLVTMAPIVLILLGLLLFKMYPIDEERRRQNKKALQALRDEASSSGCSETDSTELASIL
Procedure: (§1) The assay was conducted in a low throughput 6-well format with HEK293 cells prepared and then transfected in duplicate wells with plasmids containing either the wildtype (WT) version of hMfsd2a, the D97A mutant version, or an empty vector as control. Uptake into the ceils was assessed by both thin-layer chromatography (TLC) and ultrahigh performance liquid chromatography hyphenated mass spectrometry.
(§2) HEK293 cells were seeded at 6.25×10^5 per 6-well in 2 mL of DMEM with 10% FBS and 1% penicillin-streptomycin (P/S) media (Sigma) and incubated overnight at 37° C. in 5% CO2. Cells were checked for confluency the next morning. On a per well basis the following lipid mix was generated, 6 μL of Lipofectamine 2000 was added dropwise to 200 μL of OptiMEM, this was left to stand for 5 minutes at room temperature (RT). 1 μg of hMfsd2a WT, D97A or empty plasmid was prepared in 200 μL of OptiMEM as appropriate for each well; the Lipofectamine 2000 in OptiMEM solution was then added dropwise to a total volume of 400 μL (this can be scaled to support the number of wells/plates to be assayed). This transfection preparation was then incubated at RT for 20 minutes. DMEM with 10% FBS and no P/S media was warmed to 37° C., the HEK293 plate media was changed and the cells washed carefully with 1 mL of the warmed DMEM with 10% FBS no P/S media, 1.6 mL of the warmed DMEM with 10% FBS no P/S media was then added to each well. 400 μL of the transfection preparation was then added dropwise to each well as appropriate and the plate was gently swirled in a circular motion. The plate was then incubated overnight at 37° C. in 5% CO2.
(§3) Compound Incubation and Preparation of Analysis Samples Compound stock solutions were prepared in a 12% BSA in PBS solution such that a 40 μL spike into 2 ml, of plain DMEM would yield a concentration of 50 μM of test compound (the compound treated media). Remaining compound stock solution in 12% BSA in PBS was frozen at −20° C. to allow for media stability testing. The HEK293 6-well plate was removed from the incubator and the wells gently rinsed with 1 mL of plain DMEM that had been prewarmed to 37° C. 2 mL of the compound treated media was then added to each well. A 100 μL sample of the compound treated media was sampled to represent a T=0 h sample; 5 μL of this sample (the remainder was reserved and frozen in case of re-analysis being required) was diluted with 45 μL of DMEM and crashed with 50 μL MeCN in a 96-well plate which was sealed and kept on ice. The HEK293 6-well plate was then incubated at 37° C. in 5% CO2 for 1 hour, the plate was then removed from the incubator and a 100 μL sample of media taken from each well to represent a T=1 h sample; 5 μL of this sample (the remainder was reserved and frozen in case of re-analysis being required) was diluted with 45 μL of DMEM and crashed with 50 μL MeCN into the 96-well plate which was re-sealed and stored at −20° C. The remaining media was then removed from the HEK293 6-well plate, the wells were gently rinsed twice with 1 mL of 0.5% BSA in DMEM, the media was then removed and the 6-well plate allowed to dry completely at RT. 1 ml of 3:2 Hexane:Isopropanol (HIP) was added to each well in a fume cupboard and the plate allowed to stand for 30 minutes at RT without shaking. The HIP solution was then transferred to 2 mL Eppendorf tubes, and the process was repeated with a second 1 mL aliquot of HIP and the two aliquots combined. The HIP samples were then dried down under a nitrogen stream.
HIP samples prepared as described above were reconstituted in 100 μL of MeCN, vortex mixed and inverted multiple times to ensure all surfaces of the Eppendorf tube were rinsed with the MeCN and finally pulse centrifuged. […]

hMfsd2a [2] = biological target: T1, hMfsd2a; assay: In vitro Mfsd2a transport, thin layer chromatography (TLC) analysis; type: cell-based; conditions: transfected HEK293 cells, 50 μM test compound, 1 hour, iodine and cupric acetate stain
Procedure: as §1, §2, §3
Silica gel plates were prepared in a fume cupboard by initially drawing a line 1.5 cm from the bottom edge of the plate and then drawing sample lanes with a width of 1 cm and a separation of 0.5 cm between lanes. TLC buffer for phospholipids was prepared as a 31:62:7 solvent mix of Methanol:Chloroform:Ammonium Hydroxide. Plates were pre-run in a humid chamber containing 200 mL of the TLC buffer until the solvent front was 1.5 cm from the plate edge, the plate was then allowed to dry. […]

[3] = In vitro brain homogenate stability, rat; type: in vitro ADME; conditions: for half-life at 1 μM: 37° C., test compound at 1 μM, read-out: Rat t1/2; for Clearance in brain homogenate stability study (in words): one hour incubation, increasing formation of Compound 2
Procedure: (§4) Fresh rodents brains were snap frozen immediately after collection and the assay performed on the same day. Brains were pre-incubated at 37° C. before being spiked with test compound at 1 μM. Samples were collected across 6 time points (0, 10, 20, 30, 45 and 60 minutes) and crashed in cold acetonitrile containing an internal standard (Leucine Enkephalin) and kept on ice until all samples had been collected. The samples were then shaken and centrifuged. 100 μL of supernatant was transferred to a plate containing 50 μL of MilliQ water and mixed. These plates were analyzed by LC-MS/MS over the 6 time points, where the percentage of test compound remaining was calculated using the peak area of the initial timepoint (T=0 minutes) as 100%. The natural log of the percentage remaining was then calculated. The natural log of the percentage remaining versus time (minutes) was plotted on a graph and the gradient of this graph was used to calculate the elimination rate constant (K), The half-life (t1/2) of test compound was calculated using the natural log of 2 divided by the elimination rate constant. The percentage of Compound 2 formed is reported below in Tables 4-6. FIGS. 9A-9F show results of the brain homogenate stability conducted with representative compounds of the Examples.

[4] = In vitro brain homogenate stability, mouse; type: in vitro ADME; conditions: for half-life at 1 μM: 37° C., test compound at 1 μM, read-out: Mouse t1/2; for Clearance in brain homogenate stability study (in words): one hour incubation, increasing formation of Compound 2
Procedure: as §4

[5] = PO JVC rat terminal PK study at 20 mg/kg (tissue distribution); type: in vivo; conditions: rat brain after Compound 3 at 20 mg/kg PO, before the more sensitive method
Procedure: Compound 3 was orally dosed at 20 mg/kg to a group of nine, jugular vein cannulated, individually housed male Sprague Dawley rats that were fasted overnight and fed 4 h post-dose to assess its tissue distribution profile. Dosing was performed with 5 mL/kg dosing volumes with 5% DMSO, 95% water used as a dosing vehicle. Terminal blood samples (>230 μL) were taken from groups of 3 animals at each of 3 time-points post dose (1 h, 2 h, and 4 h) by cardiac puncture under CO2 into heparinised Eppendorf tubes (containing 5 μL heparin) on ice containing an equal quantity of water. Two 100 μL aliquots were then placed in duplicate 96 well plates on dry ice. Immediately after blood sampling, brain and eye pair samples were excised, weighed, rinsed, blotted, and snap frozen in liquid N2. Samples were stored in the freezer at −20° C. until bioanalysis.
Tissue samples were weighed and a volume of water 3 times the mass added to samples before homogenization. In the case of eyeballs the lens could not be homogenized, but all other tissues homogenized. The resulting data (tissue distribution parameters) are shown below in Table 2.

[6] = Brain homogenate re-analysis for Compound 2 after PO Compound 3 at 20 mg/kg; type: in vivo; conditions: after dosing Compound 3
Procedure: Re-analysis of the brain tissues harvested above (see Example 4) was conducted according to the following procedures and the data are shown in Table 3. • 1. 100 μL of brain homogenate was transferred to a 2 mL square matrix deep well plate, • 2. 300 μL acetonitrile (ACN) containing IS was dispensed on to the samples and mixed on a shaker. • 3. The samples were centrifuged for 15 min at 3500 rpm. • 4. 300 μL supernatant was transferred in to a fresh 2 mL square matrix deep well plate. • 5. Samples were concentrated using nitrogen then reconstituted in 80 μL of 50:50 ACN:MilliQ water and shaken on a plate shaker. • 6. Samples were then analyzed by LC-MS-MS.

| SMILES | Transport via Mfsd2a: concentration in HIP samples from WT cells compared with D97A mutant Mfsd2a and/or empty vector cells (hMfsd2a [1]) | Transport via Mfsd2a: TLC band intensity in WT cells compared with D97A mutant Mfsd2a and/or empty vector cells (hMfsd2a [2]) | half-life at 1 μM [3] | Clearance in brain homogenate stability study (in words) [3] | half-life at 1 μM [4] | Clearance in brain homogenate stability study (in words) [4] | Detection of Compound 2 in brain tissues, first analysis [5] | Detection of Compound 2 in the brain, in-vivo rat CNS penetration data using Compound 3 [6] |
| --- | --- | --- | --- | --- | --- | --- | --- | --- |
| CCCCC/C=C\C/C=C\C/C=C\C/C=C\CCCC(=O)NCCOC(=O)OCCCOP(=O)([O-])OCC[N+](C)(C)C [Compound 7, 3-(((2-((5Z,8Z,11Z,14Z)-icosa-5,8,11,14-tetraenamido)ethoxy)carbonyl)oxy)propyl (2-(trimethylammonio)ethyl) phosphate] | transported via Mfsd2a | transported via Mfsd2a | – | – | – | – | – | – |
| CCCCC/C=C\C/C=C\C/C=C\C/C=C\CCCC(=O)NCCOP(=O)(O)OCC(N)C(=O)O (stereo not shown) [Compound 5, 2-ammonio-2-carboxyethyl (2-((5Z,8Z,11Z,14Z)-icosa-5,8,11,14-tetraenamido)ethyl) phosphate] | cannot be confirmed if the compound is transported via Mfsd2a | transported via Mfsd2a | 2.1 h | demonstrated a level of clearance | 4.3 h | demonstrated a level of clearance | – | – |
| CCCCC/C=C\C/C=C\C/C=C\C/C=C\CCCC(=O)NOC(C)(O)COP(=O)([O-])OCC[N+](C)(C)C (stereo not shown) [Compound 20, 2-hydroxy-2-(((5Z,8Z,11Z,14Z)-icosa-5,8,11,14-tetraenamido)oxy)propyl (2-(trimethylammonio)ethyl) phosphate] | transported via Mfsd2a | cannot be confirmed if the compound is transported via Mfsd2a | – | – | – | – | – | – |
| CCCCC/C=C\C/C=C\C/C=C\C/C=C\CCCC(=O)NCCO [Compound 2, (5Z,8Z,11Z,14Z)—N-(2-hydroxyethyl)icosa-5,8,11,14-tetraenamide, reference compound] | – | – | – | – | – | – | not detected above the lower limit of quantification | detected in the brain |
| CCCCC/C=C\C/C=C\C/C=C\C/C=C\CCCC(=O)NCCOC(=O)NCCOP(=O)([O-])OCC[N+](C)(C)C [Compound 8, 2-(((2-((5Z,8Z,11Z,14Z)-icosa-5,8,11,14-tetraenamido)ethoxy)carbonyl)amino)ethyl (2-(trimethylammonio)ethyl) phosphate] | transported via Mfsd2a | transported via Mfsd2a | – | – | – | – | – | – |
| CCCCC/C=C\C/C=C\C/C=C\C/C=C\CCCC(=O)NCCOC(=O)OCCOP(=O)([O-])OCC[N+](C)(C)C [Compound 6, 2-(((2-((5Z,8Z,11Z,14Z)-icosa-5,8,11,14-tetraenamido)ethoxy)carbonyl)oxy)ethyl (2-(trimethylammonio)ethyl) phosphate] | transported via Mfsd2a | transported via Mfsd2a | – | – | – | – | – | – |
| CCCCC/C=C\C/C=C\C/C=C\C/C=C\CCCC(=O)NCCOP(=O)(O)OCCN [Compound 4, 2-ammonioethyl (2-((5Z,8Z,11Z,14Z)-icosa-5,8,11,14-tetraenamido)ethyl) phosphate] | transported via Mfsd2a | transported via Mfsd2a | 1.27 h | demonstrated a level of clearance | 2 h | demonstrated a level of clearance | – | – |
